Reference: publication PMC12177060, “Blocking XIAP:CASP7-p19 selectively induces apoptosis of CASP3/DR malignancies by a novel reversible small molecule” (Cell Death & Disease, 2025)
pKd: −log10 of the molar value.

Biological target: T1, CASP7 (Homo sapiens, UniProt P55210)
T1 construct: human CASP7 cDNA in pET28a, C-terminal 6-His tag, E. coli BL21(DE3), Ni-NTA purified; active processed form, MW 70 kDa hetero-tetramer (p19/p12)
T1 sequence (P55210 24-198): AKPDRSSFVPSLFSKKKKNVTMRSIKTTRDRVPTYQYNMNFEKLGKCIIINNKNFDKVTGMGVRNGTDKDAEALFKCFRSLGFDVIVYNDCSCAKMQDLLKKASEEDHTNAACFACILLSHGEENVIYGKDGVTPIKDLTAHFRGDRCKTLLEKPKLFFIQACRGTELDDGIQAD
T1 sequence (P55210 207-303): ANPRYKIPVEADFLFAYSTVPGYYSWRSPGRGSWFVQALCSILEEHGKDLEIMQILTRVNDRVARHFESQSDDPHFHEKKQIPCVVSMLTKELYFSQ
Assay: SPR (BIAcore), His-tagged CASP7 immobilised on NiNTA chip
Format: binding
Conditions: allosteric site near Cys246/Asp93 (proposed), reversible; 2.5, 5 or 10 μM injected

## COc1cc2c(-c3ccc(O)cc3)nc3c(c(C)nn3-c3ccccc3)c2cc1OC [compound 643943, 643943]
  pKd: 5.51
